Data on 6 molecules can be found in US10543162B2 (Rutgers, The State University of New Jersey, priority 2015, dated 2020).

Series [1] is described as follows: Dienol (4) Log P determination by reverse-phase HPLC. The series is classed as physicochemical. Particulars: for chromatographic logP: from HPLC log kw via calibration curve of reference samples' published Log Po,w, read-out: Calculated Log P Values; for Calculated kw: retention factor at 100% buffer, extrapolated from HPLC retention factors at MeOH:buffer 45:55→60:40, 25° C. On the procedure:
Log P, partitioning coefficient of respective compounds between a hydrophilic (aqueous) and lipophilic (oil) phase, studies were conducted to investigate the relative hydrophobicity of Dienols (4). Using HPLC equipped with an XTerra reverse-phase C18 (RP18) 3.5 μm 4.6×150 mm column (Waters, Milford, Mass.) and Waters 2695 Separations Module, sample retention times were analyzed via a Waters 2487 Dual λ Absorbance Detector monitoring 254 and 270 nm. Mobile phases of HPLC grade methanol (MeOH) and 50 mM KH2PO4 with 1% formic acid in HPLC grade water were utilized at varying ratios (45:55→60:40) and run at 1 mL/min flow rate and 25° C. (Ayouni, et al., Chromatographia 2005, 62, (5-6), 251-255). All samples were first dissolved in DMSO and subsequently diluted with phosphate-buffer saline (PBS) to acquire 1% DMSO solutions and filtered through 0.22 μm PVDF syringe filters prior to autoinjection (20 μL).
Dienol retention factor (k) for each methanol concentration was calculated according to equation one, where tR and t0 are the retention times of the Dienols and dead time, as determined by the injection of sodium nitrate (Ayouni, et al., Chromatographia 2005, 62, (5-6), 251-255), respectfully. From the obtained retention factors the kw, retention factor at 100% buffer, was extrapolated. Hydroxybenzyl alcohol, benzyl alcohol, 2-phenylethanol, methylparaben, anisole, toluene, and thymol were used as reference samples and their retention times acquired. Using reference samples' published Log Po,w values (OECD Nuclear Energy Agency.; Organisation for Economic Co-operation and Development. In OECD guidelines for the testing of chemicals 117, Organisation for Economic Co-Operation and Development: Paris, 2004), a calibration curve was generated in which Log Po,w values were plotted on the y-axis whereas log kw values, obtained from the same method as above, were plotted on the x-axis (Ouimet, et al., Biomacromolecules 2015, 16, 2911-2919). Dienol Log P values were then calculated from the curve using equation 2. kw=(tR−t0)/t0 Equation 1 Log P=slope×log kw+y−intercept Equation 2
Thus, Dienol Log P values were extrapolated from an HPLC method to determine lipophilicity (OECD Nuclear Energy Agency.; Organisation for Economic Co-operation and Development. In OECD guidelines for the testing of chemicals 117, Organisation for Economic Co-Operation and Development: Paris, 2004). Retention factors (k) were calculated according to equation 1 for each concentration of MeOH and kw values extrapolated based off the retention times (Table 1).

The subject of series [2] is 3T3 mouse fibroblasts. Description: Cytotoxicity / cytocompatibility (MTS cell viability). Particulars: 1000 μM, after 24 h. The series is classed as cell-based. On the procedure: In vitro cytocompatibility studies were performed by culturing 3T3 mouse fibroblasts in cell media (Dulbecco's Modified Eagle Medium supplemented with 10% Fetal Bovine Serum, 1% Penicillin Streptomycin, and 1% L-glutamate) containing the KA poly(carbonate-esters). Polymers (5a-5c, 6a-6e) and Dienols (4a-4e) were first sterilized under UV at λ=254 nm for 900 s (Spectronics Corporation, Westbury, N.Y.) and subsequently dissolved in DMSO to acquire a stock solution. The stock solution was then serial diluted with cell media. Cells were seeded in a 96-well plate at 2,000 cells/well in […]. Following incubation for 1 h, polymer-containing media in 1% DMSO, at concentrations capable of inhibiting tyrosinase (0.1 mg/mL, 0.01 mg/mL and 0.001 mg/mL) were added to allocated wells in a 96-well plate and incubated at 37° C. DMSO (1%) in cell media was used as a negative control.
Cell viability was determined using CellTiter 96® Aqueous One Solution Cell Proliferation Assay. After 24 h, 48 h, and 72 h incubation with polymers, 20 μL of (3-(4,5-dimethylthiazol-2-yl)-5-(3-carboxymethoxyphenyl)-2-(4-sulfophenyl)-2H-tetrazolium) (MTS) reagent was added to each well and further incubated for 4 h at 37° C. The absorbance was then recorded with a microplate reader (Coulter, Boulevard Brea, Calif.) at 490 nm. […]

On to `O=C(CCCCC(=O)OCc1cc(=O)c(O)co1)OCc1cc(=O)c(O)co1` [Compound 4b, KA (adipic) Dienol], for which, in series [1], the chromatographic logP is 1.17 and the Calculated kw is recorded as 2.40. `O=C(COCCOCCOCC(=O)OCc1cc(=O)c(O)co1)OCc1cc(=O)c(O)co1` [Compound 4e, KA (Tetraglycolic) Dienol]: in series [1], the chromatographic logP is 0.235 and the Calculated kw is 0.688. Taken in the same sequence, the figures for `O=C(CCCCCCCC(=O)OCc1cc(=O)c(O)co1)OCc1cc(=O)c(O)co1` [Compound 4c, KA (Azelaic) Dienol] were 2.59 and 16.0. On to `O=C(CCCCCCCCC(=O)OCc1cc(=O)c(O)co1)OCc1cc(=O)c(O)co1` [Compound 4d, KA (sebacic) Dienol], for which, in series [1], the chromatographic logP was 3.1 and the Calculated kw is given as 31.6. For the molecule `O=c1cc(CO)occ1O` [Kojic Acid, 5-Hydroxy-2-(hydroxymethyl)-4-pyrone], the cytocompatibility entry in series [2] was “slightly cytotoxic”. Turning to `O=C(CCC(=O)OCc1cc(=O)c(O)co1)OCc1cc(=O)c(O)co1` [Compound 4a, KA (succinic) Dienol], in series [1], the chromatographic logP was 0.353 and the Calculated kw is listed as 0.806.
